Measured values reported in patent publication US4091097A, “Treatment of elevated histamine and uric acid levels” (Zaidan Hojin Biseibutsu Kagaku Kenkyu Kai, priority 1973, dated 1978).
Where two headings read alike, the source gives them in different places.

Key:
Acute toxicity, rats = details: rat, in vivo, printed 'for oral administration', then first of 'respective administration'
Description: The acute toxicity was determined for oral and intraperitoneal administration with mice and rats (6 mice and 2 rats in one dose group), and the LD50 value, i.e., the single application dose killing 50% of the test animals, was estimated.

histidine decarboxylase [1] = molecular target: T1, histidine decarboxylase (Rattus norvegicus, UniProt P16453); assay: Inhibition of Histidine Decarboxylase (14C-histamine formation); format: biochemical, fetal rats
T1 construct: a crude enzyme preparation obtained from fetal rats; from tissue
T1 sequence (P16453 1-656): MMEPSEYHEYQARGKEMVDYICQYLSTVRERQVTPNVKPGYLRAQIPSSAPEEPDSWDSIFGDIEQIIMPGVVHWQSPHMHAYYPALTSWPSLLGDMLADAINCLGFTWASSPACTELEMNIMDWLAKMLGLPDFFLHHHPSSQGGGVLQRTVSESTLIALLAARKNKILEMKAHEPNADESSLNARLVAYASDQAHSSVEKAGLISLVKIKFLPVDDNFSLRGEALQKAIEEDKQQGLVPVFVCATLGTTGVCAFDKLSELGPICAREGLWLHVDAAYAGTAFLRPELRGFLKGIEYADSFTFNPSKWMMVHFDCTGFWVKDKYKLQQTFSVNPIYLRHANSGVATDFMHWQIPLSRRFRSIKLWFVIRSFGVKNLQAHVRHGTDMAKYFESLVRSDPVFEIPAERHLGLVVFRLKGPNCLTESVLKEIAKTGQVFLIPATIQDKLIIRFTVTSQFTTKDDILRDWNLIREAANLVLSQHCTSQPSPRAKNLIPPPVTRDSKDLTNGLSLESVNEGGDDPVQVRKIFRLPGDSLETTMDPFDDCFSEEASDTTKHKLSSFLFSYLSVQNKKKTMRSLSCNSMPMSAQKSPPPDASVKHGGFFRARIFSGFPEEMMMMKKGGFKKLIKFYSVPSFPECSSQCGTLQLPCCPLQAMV
Description: After two hours of incubation at 37° C., the histamine 2-^14 C formed was collected on an ion exchange resin ("Amberlite" CG-50, ammonia type) from which, after washing with water, the histamine was liberated in 1N aqueous ammonia solution and radioactivity was measured.

[2] = test system: pyrexia induced by TTG No. 2; assay: Antipyretic Activity in Pyrexia-Induced Rabbits; format: in vivo, Japanese rabbits; details: 200 mg./kg. oral
Description: Common white male Japanese rabbits, 2.0 - 3.0 kg. body weight, were injected through the ear vein with 20 μg./kg. of a pyrexia inducer TTG No. 2, purified polysaccharide preparation obtained from Pseudomonas aeruginosa (marketed by Fujisawa Pharmaceutical Company, Japan), and the body temperature was monitored with a rectal thermister-type thermometer. Three hours prior to the TTG injection four rabbits in each experimental section orally received the test drug in the dose of 200 mg./kg. One group received aspirin in a dose of 100 mg./kg and a control group no drug.

[3] = test system: acetic acid-induced stretching movements; assay: Analgesic Activity in mice (acetic acid stretching); format: in vivo, mice (DDY Strain); details: control (no drug) 53
Description: Male mice of the DDY Strain having mean body weight of 20 g. were divided to the groups of 10 animals each, to which compounds of this invention or aminopyrine in saline solution were administered intraperitoneally (i.p.). The dosage was 200, 50 or 12.5 mg./kg. Then 30 minutes later, 0.2 ml. per 20 g. body weight of 0.7% acetic acid in saline was injected intraperitoneally and the number of characteristic stretching movements counted for 20 minute period and compared with a control group receiving no analgesic.

[4] = test system: anaphylactic shock (egg albumin); assay: Effect on the Anaphylactic Shock in Mice; format: in vivo, mice (DDY Strain)
Description: DDY Strain mice were sensitized by subcutaneous injection of a mixture of 0.1 ml. (100 μg.) egg albumin (Nutritional Biochemical Corp. U.S.A., 5 times crystallized) and 0.1 ml. Freund's complete adjuvant (Difco Co., U.S.A.) in saline. The mice were used for the test 3 months thereafter. The sensitized animals were divided in 3 groups of 4 animals each, which were subcutaneously administered the test compound several times before antigen challenge to cause anaphylactic shock. Group 1 received 100 mg./kg. 19 hours before and 50 mg./kg. 9, 4 and 1 hour before challenge. Group 2 received 100 mg./kg. 9 hours before and 50 mg./kg. 4 and 1 hour before challenge. Group 3 was a control group and received only saline solution.

rats = assay: Subacute toxicity, daily doses for 32 consecutive days; format: in vivo; details: 3.1, 12.5, 50 and 200 mg./kg. daily, oral or i.p., 32 days
histidine decarboxylase [5] = details: cited from earlier work
animals [6] = details: cited from earlier work
animals [7] = details: cited from earlier work; remark: listed apart in the source
[8] = 2 hrs. after TTG, control (no drug) 1.2
[9] = 4 hrs. after TTG, control (no drug) 1.6
[10] = Group 1 (100 mg./kg. 19 h, 50 mg./kg. 9, 4, 1 h before), mouse 1, control 5
[11] = Group 2 (100 mg./kg. 9 h, 50 mg./kg. 4, 1 h before), mouse 1, control 5

Row | SMILES | Antipyretic Activity: Elevation of Body Temperature [2, 8] | Antipyretic Activity: Elevation of Body Temperature [2, 9] | Analgesic Activity: Stretching Count (20 minutes) ([3]; 50 mg./kg. i.p.) | Analgesic Activity: Stretching Count (20 minutes) ([3]; 200 mg./kg. i.p.) | Symptoms emerged, time after challenge [4, 10] | Died, time after challenge ([4]; Group 1, mouse 1, control 15) | Symptoms emerged, time after challenge ([4]; Group 1, mouse 2, control 3) | Symptoms emerged, time after challenge [4, 11] | Symptoms emerged, time after challenge ([4]; Group 2, mouse 2, control 3) | Died, time after challenge ([4]; Group 2, mouse 2, control 20) | Symptoms emerged, time after challenge ([4]; Group 2, mouse 3, control 7) | Died, time after challenge ([4]; Group 2, mouse 4, control 20) | disease symptoms or abnormality attributable to drug dosing (rats) | weight gain (rats) | also measured
1 | O=C(Nc1cc(Cl)c(O)c(Cl)c1)c1ccccc1O [Compound 1] | 0.6 °C | 0.5 °C | 11 | 4 | 15 min | 30 min | 20 min | 35 min | 10 min | 30 min | 25 min | 40 min | no particular disease symptoms or abnornality attributable to the drug dosing was noted | the weight gain was normal | LD50 (Acute toxicity, rats): 2200 mg/kg; IC50 (histidine decarboxylase [1]): 22 nM; Died, time after challenge ([4]; Group 1, mouse 2, control 20): 35 min; Symptoms emerged, time after challenge ([4]; Group 2, mouse 4, control 3): 20 min
2 | CCC(=O)Oc1ccccc1C(=O)Nc1cc(Cl)c(OC(=O)CC)c(Cl)c1 [Compound 33] | 0.6 °C | 0.5 °C | 12 | 5 | 10 min | 30 min | 25 min | 20 min | 20 min | 45 min | 30 min | 40 min | no particular disease symptoms or abnornality attributable to the drug dosing was noted | the weight gain was normal | IC50 (histidine decarboxylase [1]; pH 6.8, two hours at 37° C., read-out: Histidine Decarboxylase Inhibition ID50): 39 nM; Symptoms emerged, time after challenge ([4]; Group 1, mouse 3, control 7): 30 min; Died, time after challenge ([4]; Group 2, mouse 1, control 15): 40 min
3 | Cc1cc(OC(=O)c2c(C)cc(O)cc2O)cc(O)c1C(=O)O [Lecanoric acid, 4'-carboxy-2,3'-dimethyl-4,6,5'-trihydroxyphenylbenzoate] |  |  |  |  |  |  |  |  |  |  |  |  |  |  | inhibitory activity to histidine decarboxylase (in words) (histidine decarboxylase [5]): strong inhibitory activity; anti-inflammatory activity (in words) (animals [6]): only weak anti-inflammatory activity; hydrolysis in animals (animals [7]): hydrolysed in animals
